From patent publication US10239825B2, “Ketamine derivatives” (Auckland Uniservices Limited, priority 2013, dated 2019)

How the values were obtained:
[1] = test system: adult female Sprague-Dawley rats; experiment: rat infusion study: pedal withdrawal reflex PWR = 1 (analgesic effect); assay type: in vivo; details: for minimal effective dose: Rattus norvegicus, iv; for minimal effective dose / PWR = 1 Dose: total drug administered to achieve PWR = 1, i.v. infusion; for PWR = 1 Dose, head-to-head ratio to ketamine / PWR = 1 Time, head-to-head ratio to ketamine: ratio compound/ketamine; for PWR = 1 Time: time from onset of i.v. infusion to PWR = 1
Method: (§1) All animal experiments were conducted at the Ruakura Research Centre, Hamilton, New Zealand, using experimental protocols reviewed and approved by the Ruakura Animal Ethics Committee (ethics ref 12604).
(§2) Following acquisition of baseline physiologic parameters (heart rate, respiratory rate, PWR, and righting reflex (RR)) adult female Sprague-Dawley rats of approximately 350-450 g were put under non-traumatic restraint and the marginal vein of the tail was cannulated. Ketamine or a compound of the invention at 10 mg/ml was administered via a minibore extension tube adequately secured to the tail. Infusions were commenced at a rate (weight-adjusted) to deliver 20 mg/kg/min initially (until the pedal withdrawal reflex score PWR=1), then were reduced to a rate of 6.7 mg/kg/min. Infusion rate was then titrated in an up-and-down fashion to maintain dorsal recumbency and a PWR=1 to 10 minutes before cessation. Three rats were used in each study, with each group of rats also acting as their own ketamine control. The order of study drug administration was determined by prior odds/evens randomisation with a recovery interval of at least one hour afforded between experiments. PWR and RR were recorded at 1 minute intervals throughout. The times from cessation of infusion to return of righting reflex (RRR), and from cessation of infusion to the animals displaying independent locomotion (walk) were recorded.
Pedal Withdrawal Reflex (PWR) Scoring:
Nociceptive testing in animals was conducted via 1 second application of constant pressure (firm digital pressure) over the forepaw of the animal. Pedal withdrawal reflex testing is primarily used to assess analgesic effect, and responses are graded accordingly: 0, absent; 1, flicker; 2, moderate withdrawal; 3, fast withdrawal; 4, Fast withdrawal with cry/preceding apnoea (modified from Buitrago, S. et al. J. Amer. Assoc. Lab. Animal. Sci. 2008, 47, 11-17).

[2] = test system: adult female Sprague-Dawley rats; experiment: rat infusion study: loss/recovery of righting reflex and walk (anaesthetic effect); assay type: in vivo; details: for minimal effective dose: Rattus norvegicus, iv, read-out: LRR Dose; for minimal effective dose / LRR Dose: total drug administered to achieve loss of righting reflex, i.v. infusion; for LRR Dose, head-to-head ratio to ketamine / LRR Time, head-to-head ratio to ketamine / Walk Time, head-to-head ratio to ketamine / RRR Time, head-to-head ratio to ketamine: ratio compound/ketamine; for Walk Time: time from end of infusion to independent locomotion; for RRR Time: time from end of infusion to recovery of righting reflex; for LRR Time: time from onset of i.v. infusion to loss of righting reflex, 20 mg/kg/min initially
Method: as §1, §2
Loss of Righting Reflex (LRR):
This is primarily used to assess anaesthetic hypnotic effect. Righting reflex is judged absent when the rat fails to right from a position of dorsal recumbency to a position of sternal recumbency on three attempts performed in rapid succession. Dose to LRR is termed effective potency.

SMILES | melting point [°C] | minimal effective dose [1] [mg/kg] | PWR = 1 Dose, head-to-head ratio to ketamine [1] | PWR = 1 Time, head-to-head ratio to ketamine [1] | PWR = 1 Time [1] [s] | minimal effective dose [2] [mg/kg] | LRR Dose, head-to-head ratio to ketamine [2] | LRR Time, head-to-head ratio to ketamine [2] | Walk Time, head-to-head ratio to ketamine [2] | Walk Time [2] [s] | RRR Time [2] [s] | LRR Time [2] [s] | RRR Time, head-to-head ratio to ketamine [2] | properties of racemate versus enantiomer (in words) ([2]; rat infusion study, discussion) | PWR = 1 Dose [1] [mg/kg] | LRR Dose [2] [mg/kg] | recovery, fold faster than ketamine ([2]; after discontinuation of infusion) | potency (in words) ([2]; rat infusion study, discussion) | recovery (in words) ([2]; rat infusion study, discussion)
CC(C)OC(=O)CCN[C@@]1(c2ccccc2Cl)CCCCC1=O.Cl [(R)-C2iPr, (R)-Isopropyl 3-((1-(2-chlorophenyl)-2-oxocyclohexyl)amino)propanoate Hydrochloride] | 216 to 219 | 82 | 3.15 | 2.75 | 190 | 71 | 2.96 | 3.20 | 0.06 | 900 | 0 | 170 |  |  |  |  |  |  | 
CC(C)OC(=O)CCCNC1(c2ccccc2Cl)CCCCC1=O.Cl (racemic) [rac-C3iPr, Isopropyl 4-((1-(2-chlorophenyl)-2-oxocyclohexyl)amino)butanoate hydrochloride] | 167 to 169 | 66 ± 17 | 2.36 | 2.29 | 192 ± 47 | 42 ± 9 | 1.83 | 1.81 | 0.08 | 110 ± 45 | 37 ± 22 | 125 ± 21 | 0.042 |  |  |  |  |  | 
CCOC(=O)CCNC1(c2ccccc2Cl)CCCCC1=O.Cl (racemic) [rac-C2Et, Ethyl 3-((1-(2-chlorophenyl)-2-oxocyclohexyl)amino)propanoate Hydrochloride] | 199 to 202 | 55 ± 25 | 1.45 | 1.62 | 154 ± 68 | 48 ± 23 | 1.78 | 1.75 | 0.10 | 253 ± 68 | 177 ± 51 | 135 ± 61 | 0.11 |  |  |  |  |  | 
CC(C)OC(=O)CCNC1(c2ccccc2Cl)CCCCC1=O.Cl (racemic) [rac-C2iPr, Iso-Propyl 3-((1-(2-chlorophenyl)-2-oxocyclohexyl)amino)propanoate Hydrochloride] | 203 to 205 | 37 ± 6 | 1.54 | 1.79 | 127 ± 13 | 33 ± 6 | 1.50 | 1.66 | 0.14 | 153 ± 33 | 83 ± 19 | 103 ± 17 | 0.11 |  |  |  |  |  | 
COC(=O)CCCCN[C@]1(c2ccccc2Cl)CCCCC1=O.Cl [(S)-C4Me, (S)-Methyl 5-((1-(2-chlorophenyl)-2-oxocyclohexyl)amino)pentanoate Hydrochloride] |  |  | 1.76 | 1.81 |  |  | 1.80 | 1.94 | 0.51 |  |  |  | 0.07 | broadly equivalent properties |  |  |  |  | 
CCCOC(=O)CCCNC1(c2ccccc2Cl)CCCCC1=O.Cl (racemic) [rac-C3nPr, N-Propyl 4-((1-(2-chlorophenyl)-2-oxocyclohexyl)amino)butanoate Hydrochloride] |  |  | 7.46 | 6.64 | 558 ± 42 |  | 5.95 | 4.77 | 0.05 | 65 ± 33 | 10 ± 5.5 | 329 ± 106 | 0.012 |  | 209 ± 20 | 137 ± 48 |  |  | 
CC(=O)OCCCN[C@]1(c2ccccc2Cl)CCCCC1=O.Cl [(S)-C3OAc, (S)-3-((1-(2-Chlorophenyl)-2-oxocyclohexyl)amino)propyl Acetate Hydrochloride] |  | 34 ± 1 | 1.10 | 1.12 | 104 ± 7 | 26 ± 3 | 1.30 | 1.37 | 0.51 | 983 ± 93 | 566 ± 30 | 81 ± 10 | 0.65 |  |  |  | 1.5-2 fold | about as potent as ketamine | 
CCCOC(=O)CCNC1(c2ccccc2Cl)CCCCC1=O.Cl (racemic) [rac-C2nPr, N-Propyl 3-((1-(2-chlorophenyl)-2-oxocyclohexyl)amino)propanoate Hydrochloride] |  |  | 6.48 | 6.67 | 420 ± 180 |  | 7.28 | 7.92 |  | 0 | 0 | 404 ± 196 |  |  | 136 ± 67 | 131 ± 62 |  |  | 
CCCOC(=O)CCCCNC1(c2ccccc2Cl)CCCCC1=O.Cl (racemic) [rac-C4nPr, N-Propyl 5-((1-(2-chlorophenyl)-2-oxocyclohexyl)amino)pentanoate Hydrochloride] |  |  | 3.19 | 3.60 | 277 ± 97 |  | 3.56 | 4.17 | 0.08 | 90 ± 30 | 45 ± 15 | 271 ± 97 | 0.05 |  | 83 ± 34 | 82 ± 34 |  |  | 
CCOC(=O)CCN[C@]1(c2ccccc2Cl)CCCCC1=O.Cl [(S)-C2Et, (S)-Ethyl 3-((1-(2-chlorophenyl)-2-oxocyclohexyl)amino) propanoate Hydrochloride] |  |  | 2.38 | 2.53 | 185 ± 55 |  | 2.95 | 3.22 | 0.04 | 80 ± 8 | 62 ± 8 | 171 ± 54 | 0.05 |  | 62 ± 20 | 59 ± 19 |  | only half as potent | faster recoveries than the corresponding racemates
CC(=O)OCCCNC1(c2ccccc2Cl)CCCCC1=O.Cl (racemic) [rac-C3OAc, Rac-3-((1-(2-Chlorophenyl)-2-oxocyclohexyl)amino)propyl Acetate Hydrochloride] | 180 to 183 |  |  |  |  |  |  |  |  |  |  |  |  |  |  |  |  |  | 
COC(=O)CCCCNC1(c2ccccc2Cl)CCCCC1=O.Cl (racemic) [rac-C4Me, Rac-Methyl 5-((1-(2-chlorophenyl)-2-oxocyclohexyl)amino)pentanoate Hydrochloride] |  | 44 ± 10 | 2.00 | 1.53 | 124 ± 21 | 34 ± 7 | 1.70 | 1.31 | 0.086 | 126 ± 32 | 99 ± 16 | 92 ± 14 | 0.090 | broadly equivalent properties |  |  |  |  | 
